Like-named read-outs stand apart in the source and are kept apart here.
Tests used:
[1] = test system: patients with PAH; assay: Phase IIA randomized, double-blind, placebo-controlled clinical trial of tacrolimus in PAH (NCT01647945); format: in vivo, human
Experimental: Tacrolimus was selected as the agent for increasing BMPR2 signaling. A phase IIA trial to assess the safety and tolerability of different doses tacrolimus (goal blood level <2 ng/ml, 2-3 ng/ml, 3-5 ng/ml) vs Placebo was conducted (Clinical Trials Identifier: NCT01647945). The secondary endpoints were change in clinical worsening, change in 6-min walk distance, NT-pro BNP, Uric Acid, and novel echo parameters. The phase IIA trial was a single center trial with 23 patients. This study was open to male or female subjects, 18-70 years of age, with pulmonary hypertension. The Inclusion and Exclusion criteria used are below:
• 1. Age ≥18 and <70 years • 2. Diagnosis of WHO Group I Pulmonary Arterial Hypertension (PAH) (Idiopathic (I)PAH, Heritable PAH (including Hereditary Hemorrhagic Telangiectasia), Associated (A)PAH (including collagen vascular disorders, drugs+toxins exposure, congenital heart disease, and portopulmonary disease). • 3. Stable on active PAH treatment including any prostacycline or phosphodiesterase inhibitors and the endothelin antagonist Ambrisentan alone or in combination (stability defined as: <10% change in 6 MWD, no change in NYHA class, no hospitalization or addition of PAH therapy for at least 3 months). • 4. Previous Right Heart Catheterization (RHC) that documented: • a. Mean PAP ≥25 mmHg. • b. Pulmonary capillary wedge pressure <15 mmHg. • c. Pulmonary Vascular Resistance ≥3.0 Wood units or 240 dynes/see/cm5 • 5. All NYHA/WHO functional classes. • 6. Willingness of female subjects to use birth control, or be post-menopausal, or status post hysterectomy.
• 1. WHO Group II-V Pulmonary Hypertension. • 2. Current or prior experimental PAH treatments within the last 6 months (including but not limited to tyrosine kinase inhibitors, rho-kinase inhibitors, or cGMP modulators). • 3. Current active treatment with the dual endothelin receptor antagonist bosentan. • 4. Total lung Capacity (TLC)<60% predicted; if TLC b/w 60 and 70% predicted, high resolution computed tomography must be available to exclude significant interstitial lung disease. • 5. Forced expiratory volume (FEV1)/Forced Vital Capacity (FVC)<70% predicted and FEV1<60% predicted • 6. Significant left-sided heart disease (based on screening Echocardiogram): • a. Significant aortic or mitral valve disease • b. Diastolic dysfunction≥Grade II • c. Left Ventricle (LV) systolic function <45% • d. Pericardial constriction • e. Restrictive cardiomyopathy • f. Significant coronary disease with demonstrable ischemia. • 7. Chronic renal insufficiency defined as an estimated creatinine clearance <30 ml/min (by Modification of diet in renal disease (MDRD) equation). • 8. Current atrial arrhythmias not under optimal control. • 9. Uncontrolled systemic hypertension: SBP>160 mm or DBP>100 mm • 10. […]

[2] = test system: BMPR2 signaling (BRE from the Id1 promoter linked to luciferase, C2C12 mouse myoblastoma reporter cells); assay: BRE-Luc reporter high throughput screen for compounds that increase BMPR2 signaling; format: cell-based; settings: screen of library of >3,600 compounds
Experimental: A C2C12 mouse myoblastoma reporter cells line where the BRE (BMP Response Element) from the Id1 promoter (a main downstream target of BMP signaling) was linked to luciferase (BRE-Luc) was used to identify compounds that increase BMPR2 signaling. Thus, activation of the BMP pathway was measured by luminescence. A high throughput screen of a library containing greater than 3,600 compounds was used.

[3] = test system: PAH patients; settings: for symptoms and exercise capacity: within 1 month of initiation, ambrisentan
[4] = all three patients, first 3-6 months
[5] = patient #1, after 3 months of treatment
[6] = patient #1, baseline, 3 and 6 months
[7] = patient #2, 12 months follow-up
[8] = patient #2, baseline, 3 and 6 months
[9] = patient #2, within 3 months of treatment

Q: For C=CC[C@@H]1/C=C(\C)C[C@H](C)C[C@H](OC)[C@H]2O[C@@](O)(C(=O)C(=O)N3CCCC[C@H]3C(=O)O[C@H](/C(C)=C/[C@@H]3CC[C@@H](O)[C@H](OC)C3)[C@H](C)[C@@H](O)CC1=O)[C@H](C)C[C@@H]2OC [Tacrolimus, tacrolimus], which “BMPR2 signaling (biomarker data)” value ([1]; PAH patients) is on record?
A: increase in BMPR2 signaling

Q: And the “drug-related serious adverse events” value ([1]; all tested doses)?
A: no drug-related serious adverse events

Q: And the “incidences of hypertension or cardiovascular events” value ([1]; all tested doses)?
A: no incidences of hypertension or cardiovascular events

Q: And the tolerability ([1]; all tested doses (goal blood level <2, 2-3, 3-5 ng/ml))?
A: well tolerated

Q: What about the “BMPR2 signaling (activation of the BMP pathway measured by luminescence)” value [2] of the same compound?
A: increased BMPR2 signaling

Q: And the REVEAL risk score ([3]; all 3 patients)?
A: improved

Q: And the “hospital admission for worsening of heart failure” value ([3]; all three patients, during treatment)?
A: None of the patients was admitted

Q: What about the “6 MWD” value [3, 4] of the same compound?
A: increase

Q: What about the “NT-pro BNP” value [3, 4] of the same compound?
A: decrease

Q: What about the tolerability ([3]; human, in vivo) of the same compound?
A: tolerated low-dose tacrolimus very well

Q: What about the infections ([3]; human, in vivo, iv) of the same compound?
A: did not report an increase of infections

Q: What about the “symptoms and exercise capacity” value ([3]; patient #1 (IPAH), trough goal 1.5-2.5 ng/mL, on epoprostenol, sildenafil) of the same compound?
A: substantial improvement

Q: What about the PAH associated hospitalizations ([3]; patient #1, 12 months after initiation (3 in the 12 months prior)) of the same compound?
A: free of any PAH associated hospitalizations

Q: What about the NT-proBNP [3, 5] of the same compound?
A: 678 pg/mL

Q: What about the NYHA class symptoms [3, 5] of the same compound?
A: NYHA Class I

Q: And the “improvement in 6 MWD” value [3, 5]?
A: approximately 100 meters

Q: And the “lowering of NT-proBNP” value [3, 5]?
A: > 50%

Q: What about the “RV ejection fraction (RVEF), cMRI” value [3, 6] of the same compound?
A: stable

Q: What about the “RV end-diastolic volume index (RVEDVi), cMRI” value [3, 6] of the same compound?
A: stable

Q: And the “RV stroke volume index (RVSVi), cMRI” value [3, 6]?
A: increased

Q: And the “cardiac index (CI), cMRI” value [3, 6]?
A: increased

Q: What about the REVEAL risk score ([3]; patient #1, on treatment (11 at transplant listing)) of the same compound?
A: 3

Q: What about the “lung transplant list status” value ([3]; patient #1, within 2 months) of the same compound?
A: placed on a status 7 (hold) for transplantation

Q: What about the “symptoms and exercise capacity” value ([3]; patient #2 (systemic sclerosis associated PAH), on treprostinil, sildenafil, dopamine) of the same compound?
A: some improvement

Q: What about the PAH related hospitalizations ([3]; patient #2, 12 months after initiation (4 in the 15 months prior)) of the same compound?
A: free from any PAH related hospitalizations

Q: And the CO [3, 7]?
A: 3.4 L/min

Q: What about the “NT-pro BNP” value [3, 7] of the same compound?
A: 1,895 pg/mL

Q: What about the “NT-pro BNP reduction compared to baseline” value [3, 7] of the same compound?
A: 30%

Q: What about the NYHA symptoms [3, 7] of the same compound?
A: stable NYHA III symptoms

Q: And the PAWP [3, 7]?
A: 10 mmHg

Q: What about the PVR [3, 7] of the same compound?
A: 14.1 WU

Q: And the SVO2 [3, 7]?
A: 59%

Q: And the “increase in 6 MWD” value [3, 7]?
A: 94 meter

Q: And the mPAP [3, 7]?
A: 58 mmHg

Q: And the mRAP [3, 7]?
A: 7 mmHg

Q: What about the “CI, cMRI” value [3, 8] of the same compound?
A: improvement

Q: What about the “RVEDVi, cMRI” value [3, 8] of the same compound?
A: stable

Q: What about the “RVEF, cMRI” value [3, 8] of the same compound?
A: substantial improvement

Q: And the “RVSVi, cMRI” value [3, 8]?
A: improvement

Q: And the REVEAL risk score ([3]; patient #2, on treatment (from 12))?
A: 11

Q: And the “NT-pro BNP” value ([3]; patient #2, within 1 month (from 2,669))?
A: 1,895 pg/mL

Q: What about the “6 MWD improved by” value [3, 9] of the same compound?
A: 18 meters

Q: And the “NT-pro BNP” value [3, 9]?
A: 1,580 pg/mL

Q: And the NYHA symptoms [3, 9]?
A: stable NYHA III symptoms

Q: What about the symptoms ([3]; patient #3 (drugs and toxins associated PAH), over a 5-months period, on treprostinil, sildenafil) of the same compound?
A: symptomatic improvement

— patent publication US20240238259A1, “COMBINATION THERAPY FOR PULMONARY HYPERTENSION” (VIVUS LLC, priority 2015, published 2024)
